The values below come from patent publication US20260183429A1, “COMPOSITIONS FOR MODULATING ACETYLATED TUBULIN LEVELS AND METHODS THEREOF” (THE TRUSTEES OF COLUMBIA UNIVERSITY IN THE CITY OF NEW YORK, priority 2023, published 2026).

Common to all, as to format: cell-based, mouse
One experiment concerns WT MEFs. In words: MT plus end dynamics, GFP-tubulin live imaging, WT MEFs. Particulars: WT + TSA. How it is done:
(§1) Fibroblasts were transfected with pMSCV-puro-tagGFP-C4 α-tubulin plasmid to generate a green fluorescent protein (GFP)-tubulin stably expressing cell line. Live imaging of MT dynamics in transfected cells was performed at 37° C. and 5% CO2 for 5 min (5 s/f) with a 100×
(§2) PlanApo objective (numerical aperture 1.45) and an iXon X3 CCD camera (Andor, Belfast, United Kingdom) on a Nikon Eclipse Ti microscope controlled by Nikon's NIS-Elements software (Nikon, Tokyo, Japan). Movies were analyzed by ImageJ using a manual tracking plug-in. Dynamicity is calculated by dividing the sum of growth and shrinkage distances by MT lifetime.

Experiment [1] concerns MFN2 KO MEFs. Briefly: MT plus end dynamics, GFP-tubulin live imaging, MFN2 KO MEFs. How it is done: as §1, §2
The test system of experiment [2] is Iqgap1 KO MEFs. Briefly: MT plus end dynamics, GFP-tubulin live imaging, Iqgap1 KO MEFs. Particulars: Iqgap1 KO + TSA. How it is done:
as §1, §2

For experiment [3], the system named is acetylated tubulin in MFN2 KO MEFs. In words: Acetylated tubulin levels by immunoblot and immunofluorescence in MFN2 KO MEFs. Particulars: MFN2 KO cells; 10 nM TSA, 6 h and 12 h (FIGS. 2A-2D). The method, then:
(§3) Cells were fixed in 4% PFA for 15 min and permeabilized with 0.1% Triton X-100 for 5 min at R.T. For the MT cytoskeleton, cells were fixed in ice cold MetOH for 10′ prior to rehydration in PBS buffer. Cells were then washed in PBS, blocked in 2% FBS and 2% BSA in PBS for 1 h, stained with primary antibodies overnight at 4° C. followed by secondary antibodies for 1 h. Mounted samples were observed using a Zeiss LSM 800 confocal microscope using a 63× objective (Plan-Apochromat, NA 1.4). Z stack (0.5 um) images were acquired. To calculate the Mitotic Index as percentage, the number of cells in mitosis were divided by the total number of cells multiplied by 100. […] ROIs were selected in both channels to calculate mean fluorescence and integrated density prior to calculating corrected total fluorescence intensity (CTCF=Integrated Density−(Area of selected cell*Mean fluorescence of background readings). For measuring MT associated MB11 intensity, an ROI was selected along individual tyrosinated MTs using ImageJ and GTP tubulin (hMB11) pixel intensity was calculated along the tyrosinated tubulin signal and corrected by subtracting out background signal fluorescence intensity.
(§4) Cells were lysed in Laemmli sample buffer and boiled at 96° C. for 5 min. […] Image acquisition was performed with an Odyssey imaging system (LI-COR Biosciences, NE) and analyzed with Odyssey software.
For orientation: Immunoblotting shows a protein as a band on a membrane.

Experiment [4] deals with MFN2 KO MEFs. In words: Mitochondrial morphology, motility, distribution and association with MTs in MFN2 KO MEFs. The note with it: MFN2 KO cells. The method, then:
For immunofluorescence staining of the MT cytoskeleton, cells were fixed in ice cold MetOH for 10′ prior to rehydration in PBS buffer. For all other staining, cells were fixed in 4% PFA for 15 min and permeabilized with 0.1% Triton X-100 for 5 min at R.T. Cells were then washed in PBS, blocked in 2% FBS and 2% BSA in PBS for 1 h, stained with primary antibodies overnight at 4° C. followed by secondary antibodies for 1 h. Mounted samples were observed using a Zeiss LSM 800 confocal microscope equipped with Airyscan module, using a 63× objective (Plan-Apochromat, NA 1.4). Z stack (0.2 um) images were acquired and processed using Zen Blue 2.1 software prior to analysis by ImageJ software. For 3D reconstruction, mitochondrial networks in individual cells were quantified by analyzing the network volume using Imaris software (Bitplane, Concord, MA). For line scan analysis, a line was drawn, and intensity was measured represented as gray values. The amount of fluorescence of the colocalizing pixels in each channel (Mander's coefficient) was calculated using ImageJ. The file was opened, and channels were split. Each select file was changed to 8-bit greyscale and max projection images was generated. Colocalization was assessed by Plugin co-localization finder. To calculate number of ATAT1 foci, each image was converted into an 8-bit greyscale image and ATAT1 signal thresholded until the foci appeared isolated from the background in a binary image. Both channels were then merged into one and the number of foci localizing in the merged stack quantified. To calculate ATAT1 localization with MFN2 on mitochondria, numbers of ATAT1 and MFN2 foci were quantified on each channel individually. Both channels were then merged into one and number of foci in the merged stack analyzed and quantified on mitochondria.
(§5) Mitochondria were labeled using MitoTracker™ Red CMROX according to manufacturer protocol (ThermoFisher Scientific) and detected by epifluorescence microscope equipped with 60× objective lens (Olympus IX81) and a monochrome CCD camera (Sensicam QE, Cooke Corporation). Aspect ratio (length/width) were measured in unedited image files by using Image J/FIJI. Brightness and contrast of the images were adjusted to optimize visualization of the mitochondrial segments and to reduce background noise. After selecting an individual cell, the Analyze Particles function (pixel size 10-infinity; circularity 0.00-1.00) was used to count the number of noncontiguous, discrete particles, and describe their shape. For mitochondrial distribution and displacement velocity mitochondria were live imaged for 3 min at 2 sec/frame at 37° C. A customized Mitoplot software was used for analyzing mitochondrial distribution by defining the center of cell and drawing a line towards periphery. Manual tracking plug-in in ImageJ/FIJI was used to analyze mitochondrial displacement velocity by selecting individual mitochondria.

In experiment [5] the test system is MFN2 KO MEFs. In words: Mitochondria fusion by mitoDendra photoconversion in MFN2 KO MEFs. Particulars: MFN2 KO cells; TSA 10 nM, 6 h. The text has this: Dendra2 photoconversion and imaging utilized the protocol from Evrogen. Images were acquired with an Olympus spinning disk microscope EC-Plan-Neofluar 40X/1.3 oil. Z-stack acquisitions over-sampled each optical slice twice, and the Zen 2009 image analysis software was used for maximum z-projections. The 488 nm laser line and the 561 nm laser excited Dendra2 in the unconverted state and photo-converted state, respectively. To photo-switch Dendra2, a region was illuminated with the 405 nm line (4% laser power) for 90 bleaching iterations. The corrected total fluorescence intensity of both the channels was calculated using ImageJ and colocalization percentage was calculated.

Experiment [6] relates to MFN2 KO MEFs. Briefly: Lipidomics of lipid classes in MFN2 KO MEFs. The note with it: MFN2 KO cells; TSA 10 nM.
The subject of experiment [7] is MFN2 KO MEFs. In words: MAM-dependent phospholipid synthesis, 3H-Ser incorporation into PtdSer and PtdEtn. Particulars: TSA 10 nM, 6 h, after 2 h and 4 h. The method, then:
Both mitochondria and ER play key roles in the synthesis of phosphatidylserine (PtdSer), phosphatidylethanolamine (PtdEtn), and phosphatidylcholine (PtdCho). PtdSer is synthesized in the MAM; it then translocates to mitochondria, where it is converted to PtdEtn; PtdEtn then translocates back to the MAM, to generate PtdCho. To test the effect of MFN2 on phospholipid synthesis mediated by MAM, WT and MFN2 KO MEF cells were incubated for 2 h with serum-free medium to ensure removal of exogenous lipids. The medium was then replaced with MEM containing […] of 3H-serine for 2, 4 and 6 h. The cells were washed and collected in DPBS, pelleted at 2500×g for 5 min at 4° C., and resuspended in 0.5 ml water, removing a small aliquot for protein quantification. Lipid extraction was done by the Bligh and Dyer method. Briefly, three volumes of chloroform/methanol 2:1 were added to the samples and vortexed. […] The spots corresponding to the relevant phospholipids (identified using co-migrating standards) were scraped and counted in a scintillation counter (Packard Tri-Carb 2900TR). […] Therefore, to directly test the effect of MFN2 mutations on phospholipid synthesis mediated by MAM, control and MFN2 KO fibroblasts were incubated in medium containing 3H-serine and measured the incorporation of the label into newly synthesized 3H-PtdSer and 3H-PtdEtn after 2 and 4 h.

The subject of experiment [8] is acetylated tubulin in Iqgap1 KO MEFs. Briefly: Acetylated tubulin levels in Iqgap1 KO MEFs. The note with it: 10 nM TSA, 6 h or 12 h. How it is done:
as §3, §4

For experiment [9], the system named is Iqgap1 KO MEFs. Briefly: Mitochondria dynamics in Iqgap1 KO MEFs. The note with it: 10 nM TSA, 6 h, compared with TTL silencing. The method, then: as §5

Each structure is given as a SMILES string. Marks after values point to notes of the source that are not given here.

Regarding `CC(/C=C/C(=O)NO)=C\[C@@H](C)C(=O)c1ccc(N(C)C)cc1` [TSA, trichostatin A], in the experiment with WT MEFs (Table 3), the “% Growth” value is 20.04 ± 1.28^c,x %, the “% Pause” value is given as 63.5 ± 0.64^c,x %, the “% Shrinkage” value is on record as 18.25 ± 1.37^c,x % and the Catastrophe frequency was determined as 0.05 ± 0.004 s⁻¹. In addition, in the experiment on WT MEFs (Table 3), the Growth rate was 0.04 ± 0.007 μm/s, the MT lifetime is 56.5 ± 3.66 s, the Rescue freq. was 0.07 ± 0.006 s⁻¹ and the Shrinkage rate is 0.07 ± 0.008 μm/s. Besides, in the experiment with WT MEFs (Table 4 (Iqgap1 series)), the “% Growth” value is 23.75 ± 0.85^b,x %, the “% Pause” value is 50 ± 2.48^b,x %, the “% Shrinkage” value is 27.25 ± 3.19% and the Catastrophe frequency worked out at 0.06 ± 0.003 s⁻¹. Also, in the experiment on WT MEFs (Table 4 (Iqgap1 series)), the Growth rate came out at 0.04 ± 0.004 μm/s, the MT dynamicity is 3.32 ± 0.24^a,x μm/min, the MT lifetime is 49.5 ± 2.32 s and the Rescue freq. came to 0.07 ± 0.007 s⁻¹. Also, the Shrinkage rate with WT MEFs (Table 4 (Iqgap1 series)) was found to be 0.03 ± 0.004 μm/s. Moreover, in the experiment on MFN2 KO MEFs [1] (MFN2 KO + TSA), the “% Growth” value was 22.4 ± 0.90^c,y %, the “% Pause” value is 62.13 ± 1.68^c,y %, the “% Shrinkage” value is 16.05 ± 1.42^c,y % and the Catastrophe frequency came to 0.05 ± 0.006 s⁻¹. Moreover, in the experiment on MFN2 KO MEFs [1] (MFN2 KO + TSA), the Growth rate is reported as 0.08 ± 0.005^a,y μm/s, the MT dynamicity is reported as 4.858 ± 0.46^c,y μm/min, the MT lifetime is reported as 60.25 ± 1.43 ^ s and the Rescue freq. was determined as 0.09 ± 0.004 s⁻¹. In the experiment on MFN2 KO MEFs [1] (MFN2 KO + TSA), the Shrinkage rate is 0.08 ± 0.005^a,y μm/s. For the same compound, in the experiment on MFN2 KO MEFs [1] (MFN2 KO cells + TSA (Table 3)), the MT dynamics entry was “normalized”. Besides, in the experiment on Iqgap1 KO MEFs [2], the “% Growth” value is 25.25 ± 1.54^b,y %, the “% Pause” value is listed as 51.75 ± 1.10^b,y %, the “% Shrinkage” value is on record as 22.5 ± 0.86^b,y % and the Catastrophe frequency was found to be 0.06 ± 0.004 s⁻¹. In addition, in the experiment on Iqgap1 KO MEFs [2], the Growth rate is 0.095 ± 0.006^a,y μm/s, the MT dynamicity is 3.77 ± 0.33^b,y μm/min, the MT lifetime is on record as 51.25 ± 1.79 s and the Rescue freq. was 0.08 ± 0.006 s⁻¹. Also, the Shrinkage rate with Iqgap1 KO MEFs [2] was determined as 0.09 ± 0.004 μm/s. Also, in experiment [3], the acetylated tubulin levels entry was “normalized”. Besides, the “co-localization of mitochondria with MTs” value with MFN2 KO MEFs [4] (10 nM TSA, 6 h (FIGS. 2E, 2F)) is reported as “restored”. In the experiment with MFN2 KO MEFs [4] (TSA 10 nM, 6 h), the “central and peripheral mitochondrial displacement velocity” value is “normalized”; the mitochondria distribution result is reported as “normalized”; the mitochondria elongated morphology result is reported as “partially reestablished”. Further, in the experiment on MFN2 KO MEFs [5], the mitochondria fusion result is recorded as “completely failed to recover”. For the same compound, the “changes in sphingomyelin, cholesterol, cholesteryl esters and ceramide levels” value in the experiment with MFN2 KO MEFs [6] was “rescued”. For the same compound, the “MAM-dependent phospholipid synthesis (3H-Ser into 3H-PtdSer and 3H-PtdEtn)” value in the experiment on MFN2 KO MEFs [7] is “failed to normalize”. In addition, in experiment [8], the acetylated tubulin levels result is “restoration of acetylated tubulin levels”. In the experiment on Iqgap1 KO MEFs [9], the mitochondria dynamics result is given as “rescue of mitochondria dynamics”.

As to `O=C(CCCCCCC(=O)Nc1ccc([C@H]2O[C@@H](CSc3nc(-c4ccccc4)c(-c4ccccc4)o3)C[C@@H](c3ccc(CO)cc3)O2)cc1)NO` [tubacin, Tubacin], in the experiment with MFN2 KO MEFs [4] (tubacin 20 μM, 6 h (FIGS. 3F-3I)), the “mitochondrial displacement velocity, distribution, aspect ratio and fusion compared with TSA” value is on record as “Identical results”.
